Where “and” joins values, the source holds several entries; their conditions need not be identical. Identical values can stand only once. Entries after “also recorded” stand apart in the source; their conditions may differ.
Tests used:
Type in all cases: cell-based, HIV-1
Y181C-A98G-RTV = assay: Phenotypic susceptibility assay (site directed mutant RTV); settings: for loss of susceptibility (fold, IC50) vs wild type control RTV: Y181C and A98G; for change in susceptibility: mutations at codons 181 and 98
Excerpt: (§1) The resistance test vectors containing a functional luciferase gene cassette were constructed and host cells were transfected with the resistance test vector DNA. The resistant test vectors contained patient-derived reverse transcriptase and protease sequences that were either susceptible or resistant to the antiretroviral agents, such as nucleoside reverse transcriptase inhibitors, non-nucleoside reverse transcriptase inhibitors and protease inhibitors. The resistance test vector viral particles produced by transfecting the resistance test vector DNA into host cells, either in the presence or absence of protease inhibitors, were used to infect target host cells grown either in the absence of NRTI or NNRTI or in the presence of increasing concentrations of the drug. The amount of luciferase activity produced in infected target host cells in the presence of drug was compared to the amount of luciferase produced in infected target host cells in the absence of drug. Drug resistance was measured as the amount of drug required to inhibit by 50% the luciferase activity detected in the absence of drug (inhibitory concentration 50%, IC50). The IC50 values were determined by plotting percent drug inhibition vs. log10 drug concentration.
(§2) Host cells were seeded in 10-cm-diameter dishes and were transfected several days after plating with resistance test vector plasmid DNA and the envelope expression vector. Transfections were performed using a calcium-phosphate precipitation procedure. The cell culture media containing the DNA precipitate was replaced with fresh medium, from one to 24 hours, after transfection. Cell culture media containing resistance test vector viral particles was harvested one to four days after transfection and was passed through a […] filter before being stored at […]. HIV capsid protein (p24) levels in the harvested cell culture media were determined by an EIA method as described by the manufacturer (SIAC; Frederick, Md.). Before infection, target cells (293 and 293/T) were plated in cell culture media. Control infections were performed using cell culture media from mock transfections (no DNA) or transfections containing the resistance test vector plasmid DNA without the envelope expression plasmid. One to three or more days after infection the media was removed and cell lysis buffer (Promega) was added to each well. Cell lysates were assayed for luciferase activity (FIG. 3). The inhibitory effect of the drug was determined using the following equation: % luciferase inhibition=1−(RLUluc [drug]÷RLUluc)×100 where RLUluc [drug] is the relative light unit of luciferase activity in infected cells in the presence of drug and RLUluc is the Relative Light Unit of luciferase activity in infected cells in the absence of drug. IC50 values were obtained from the sigmoidal curves that were generated from the data by plotting the percent inhibition of luciferase activity vs. the log10 drug concentration. The drug inhibition curves are shown in (FIG. 3).
The Y181C and A98G mutations were introduced alone and in combination into resistance test vectors using the mega-primer method for site-directed mutagenesis (Sakar and Sommar, Ibid.). Resistance test vectors containing the Y181C mutation (Y181C-RTV) and the A98G mutation (A98G-RTV) and both mutations (Y181C-A98G-RTV) were then tested using the phenotypic assay described earlier and the results were compared to those determined using a genetically defined resistance test vector that was wild type at position 181 and 98. We determined the pattern of phenotypic susceptibility to the NNRTIs, delavirdine, neviraphine and efavirenz, in the three vectors.

V106A-V189L-RTV = assay: as above; settings: for change in susceptibility (fold, IC50) vs wild type control RTV: V106A and V189L; for change in susceptibility: mutations at 106 and 189
Excerpt: as §1, §2
(§3) The mutations V106A, V189L, V181C an F227L were introduced alone and in combination into resistance test vectors using the mega-primer method for site-directed mutagenesis (Sakar and Sommar, Ibid.). Resistance test vectors containing the V106A mutation (V106A-RTV), the V189L mutation (V189L-RTV), the V181C mutation (V181C-RTV) and E227L mutation (F2271-RTV) and two mutations (V106A-Y181C-RTV) and (V106A-V189L-RTV) and (V106A-F227-RTV) and (V181C-F227-RTV) and three mutations, (V106A-Y181C-F227L-RTV) were then tested using the phenotypic assay described earlier and the results were compared to those determined using a genetically defined resistance test vector that was wild type at positions 106, 189, 181 and 227. We determined the pattern of phenotypic susceptibility to the NNRTIs, delavirdine, nevirapine and efavirenz, in all nine vectors.

V106A-RTV = assay: as above; settings: V106A alone
Excerpt: as §1, §2, §3

F227L-RTV = assay: as above; settings: F227L alone; below 1 = increased susceptibility
Excerpt: as §1, §2, §3

V106A-F227-RTV = assay: as above; settings: for loss of susceptibility (fold, IC50) vs wild type control RTV: V106A and F227L; for change in susceptibility: mutations at 106 and 227
Excerpt: as §1, §2, §3

V106A-Y181C-RTV = assay: as above; settings: for loss of susceptibility (fold, IC50) vs wild type control RTV: V106A and Y181C; for change in susceptibility: mutations at 106 and 181
Excerpt: as §1, §2, §3

V189L-RTV = assay: as above; settings: V189L alone
Excerpt: as §1, §2, §3

V106A-Y181C-F227L-RTV = assay: as above; settings: for loss of susceptibility (fold, IC50) vs wild type control RTV: V106A, Y181C and F227L; for change in susceptibility: mutations at 106 and 181 and 227
Excerpt: as §1, §2, §3

Y181C-F227L-RTV = assay: as above; settings: for change in susceptibility (fold, IC50) vs wild type control RTV: Y181C and F227L, below 1 = increased susceptibility; for change in susceptibility: mutations at 181 and 227
Excerpt: as §1, §2, §3

L100I-K103N-Y188L-RTV = assay: as above; settings: mutations at 103 and 100 and 188
Excerpt: as §1, §2
(§4) The mutations Y188L, L100I and K103N were introduced alone and in combinationn into resistance test vectors using the mega-primer method for site-directed mutagenesis (Sakar and Sommar, Ibid.).

K103N-Y188L-RTV = assay: as above; settings: for change in susceptibility: mutations at 103 and 188
Excerpt: as §1, §2, §4

[1] = tested on: RTV-1033, patient 98-1033 (RT V106A, V189L, F227L); assay: Phenotypic susceptibility assay (patient RTV); settings: patient RTV pool
Excerpt: as §1, §2
A resistance test vector was constructed as described in Example 1 from a patient sample designated 98-1033. […]

| SMILES | loss of susceptibility (fold, IC50) vs wild type control RTV (Y181C-A98G-RTV) | change in susceptibility (Y181C-A98G-RTV) | change in susceptibility (fold, IC50) vs wild type control RTV (V106A-V189L-RTV) [fold] | change in susceptibility (V106A-V189L-RTV) | change in susceptibility (fold, IC50) vs wild type control RTV (V106A-RTV) [fold] | change in susceptibility (fold, IC50) vs wild type control RTV (F227L-RTV) | loss of susceptibility (fold, IC50) vs wild type control RTV (V106A-F227-RTV) | change in susceptibility (V106A-F227-RTV) | loss of susceptibility (fold, IC50) vs wild type control RTV (V106A-Y181C-RTV) | change in susceptibility (V106A-Y181C-RTV) | change in susceptibility (fold, IC50) vs wild type control RTV (V189L-RTV) [fold] | loss of susceptibility (fold, IC50) vs wild type control RTV (V106A-Y181C-F227L-RTV) | change in susceptibility (V106A-Y181C-F227L-RTV) | change in susceptibility (fold, IC50) vs wild type control RTV (Y181C-F227L-RTV) [fold] | change in susceptibility (Y181C-F227L-RTV) | change in susceptibility (L100I-K103N-Y188L-RTV) | change in susceptibility (K103N-Y188L-RTV) | decrease in susceptibility (fold, IC50) [1] | loss of susceptibility (fold, IC50) vs wild type control RTV (K103N-Y188L-RTV; K103N and Y188L) |
| --- | --- | --- | --- | --- | --- | --- | --- | --- | --- | --- | --- | --- | --- | --- | --- | --- | --- | --- | --- |
| CC(C)Nc1cccnc1N1CCN(C(=O)c2cc3cc(NS(C)(=O)=O)ccc3[nH]2)CC1 [delavirdine] | 240 fold | significant decrease | 3 | slight decrease; also recorded: alight decrease | 5 | 0.03 fold | 3 fold | slight decrease | 100 fold | significant decrease | 1.8 | 50 fold | moderate decrease | 0.89 | increase | substantial decrease | substantial decrease | 30 fold |  |
| O=C1Nc2ccc(Cl)cc2[C@@](C#CC2CC2)(C(F)(F)F)O1 [efavirenz] | 7 fold | substantial decrease; also recorded: slight decrease | 1 | no change | 1.7 | 0.48 fold and 0.4 fold | 8 fold | slight decrease | 4 fold | slight decrease | 1.3 | 12 fold | slight decrease | 0.99 | increase | substantial decrease | substantial decrease | 200 fold |  |
| Cc1ccnc2c1NC(=O)c1cccnc1N2C1CC1 [nevirapine] | greater than 800 fold | substantial decrease | 50 | moderate decrease | 60 | 3 fold | greater than 800 fold | substantial decrease | greater than 800 fold | substantial decrease | 1.3 | greater than 800 fold | substantial decrease | 285 | significant decrease | substantial decrease | substantial decrease | greater than 800 fold | greater than 800 fold |

Source: patent US7037644B1, “Means and methods for monitoring non-nucleoside reverse transcriptase inhibitor antiretroviral therapy and guiding therapeutic decisions in the treatment of HIV/AIDS” (ViroLogic, Inc., priority 1998, dated 2006)
